Measured values reported in patent US20100150938A1, “METHODS AND COMPOSITIONS FOR REDUCING INFLAMMATION AND TREATING INFLAMMATORY DISORDERS” (UNIVERSITY OF MASSACHUSETTS, priority 2008, published 2010).
Entries after “also recorded” stand apart in the source; their conditions may differ.

Experiments:
mouse macrophages = experiment: IL-1β release from LPS-primed mouse macrophages (bone marrow-derived, B6-MCLs), ELISA; format: cell-based; conditions: LPS-primed bone marrow-derived macrophages of wild type mice, Aβ 1, 5 and 10 μM
Protocol: Bone marrow derived macrophages were generated as described (Severa, M et al. Journal of Biological Chemistry 281:26188-26195 (2006)). Human PBMCs were isolated by from whole blood of healthy volunteers by density gradient centrifugation. Lysis of red blood cells was performed using red blood cell lysis buffer (Sigma). Experiments in PBMCs and macrophages were carried out at a cell density of 2×10^6 cells/ml. All primary cells and cell lines except THP-1 cells were cultured in DMEM supplemented with L-glutamine, ciprofloxacin (Cellgro, Manassas, Va.) and 10% fetal calf serum (Hyclone, Logan, Utah). THP-1 cells were cultured in RPMI supplemented with 10% fetal calf serum (Hyclone), L-glutamine, sodium pyruvate (Cellgro), and ciprofloxacin. One day prior to stimulation, THP-1 cells were differentiated using 0.5 μM PMA for three hours, washed three times and plated for stimulation. All experiments that were performed for Western blot analysis were carried out in serum free DMEM medium. ATP stimulations were carried out at 5 mM one hour prior to harvesting supernatants.
Immortalized macrophage cell lines were generated using the previously described J2 recombinant retrovirus (carrying v-myc and v-raf/mil oncogenes) (Roberson, S. M. & Walker, W. S. Cellular immunology 116:341-351 (1988)). Briefly, primary bone marrow cells were incubated in L929 conditioned medium for 3-4 days to induce macrophage differentiation. Subsequently, cells were infected with J2 recombinant retrovirus. Cells were maintained in culture for 3-6 months slowly weaning off the percentage of L929 supernatant until cells were growing in the absence of conditioned medium.
Macrophage phenotype was verified by surface marker expression for CD11b and F480 as well as a range of functional parameters, including responsiveness to TLR ligands and bacterial uptake. Macrophage cell lines from wild-type (C57BL6), NALP3- and ASC-deficient mice were generated and are referred to as B6-MCLs, NALP3 -MCLs and ASC-MCLs.
Cell culture supernatants were assayed for IL-1β using ELISA kits from BD Biosciences (Franklin Lakes, NJ) according to the manufacturer's instructions. To measure intracellular IL-1β, cells were washed and subjected to three freeze thaw cycles in assay diluent.
(§1) Stimulations were carried out in serum free DMEM medium. Microglial cells and macrophages were primed with 100 U/ml IFNγ (Griess assay, TNF ELISA, real-time quantitative PCR) or 100 ng/ml ultrapure LPS (IL-1β ELISA, FLICA, ASC-CFP microglia cell line assay, Western blot) 1-3 h prior to stimulation with Aβ, revAβ, zymosan, ATP or transfection with dAdT.

mouse microglia = experiment: IL-1β release from LPS-primed mouse microglia (ELISA); format: cell-based; conditions: LPS-primed primary and immortalized mouse microglia, 10 μM
Protocol: For primary cultures, bone marrow-derived macrophages and microglia were isolated as described^42,43 and cultured in DMEM supplemented with L-glutamine, ciprofloxacin (Cellgro, Manassas, Va.) and 10% fetal calf serum (Hyclone, Logan, Utah) Immortalized macrophage and microglial cell lines were generated using J2 recombinant retrovirus (carrying v-myc and v-raf oncogenes)^44,45. Briefly, primary bone marrow cells were incubated in L929 conditioned medium for 3-4 days to induce macrophage differentiation. Cells were then infected with J2 recombinant retrovirus and maintained in culture until cells were growing in the absence of conditioned medium. Similarly, primary mixed glial cultures were cultured until fully confluent. After two consecutive infections with J2 retrovirus, cells were maintained in normal medium until growth of microglial cells in colonies was observed. The semi-adherent colonies of microglial cells were washed off and cultured in new flasks. […] Microglial cell lines form wild type (C57/BL6), Caspase-1^−/− and IL-IR^−/− mice as well as macrophage cell lines from wild type (C57BL6), NALP3 -, IPAF- and ASC-deficient mice were generated and used for experiments as indicated.
as §1
Cell culture supernatants were assayed for IL-1β and TNFα using ELISA kits from R&D Systems (Minneapolis, Minn.) according to the manufacturer's instructions. Nitric oxide was measured by Griess reaction of nitrites accumulated in the supernatants using chemicals from Sigma.

lysosomes of microglia = experiment: Lysosomal swelling and damage in microglia after Aβ phagocytosis (LAMP-1, cathepsin B, LysoTracker); format: cell-based, mouse
Protocol: Neuronal, microglial, mixed neuronal/microglial and primary mixed glial cultures were fixed with 4% paraformaldehyde for 30 min and incubations with respective primary and secondary antibodies were performed for 2 h at room temperature in PBS containing 1% bovine serum albumin, 5% fetal calf serum and 0.05% saponin Cell nuclei were stained with Hoechst 33258 (1:1000).
For evaluation of lysosomal damage, cells were incubated with LysoTracker green (1:2000) for 30 min and stimulated as described. Lysosomal damage was defined as loss of LysoTracker fluorescence as assessed by flow cytometry. All flow cytometry experiments were performed on an LSRII cytometer (BD Biosciences), data were acquired by DIVA software (BD Biosciences) and analyzed with FlowJo software (Tree Star Inc., Ashland, Oreg.).

mice = experiment: Stereotaxic brain microinjection, microglial recruitment (F4/80); format: in vivo, mouse; conditions: wild type mice, 1 μl of 1 mg/ml into striatum, 48 h
Protocol: Injections were performed as described^27. Briefly, six week old mice (n=4 in each group) were anesthetized with ketamine (100 mg/kg i.p.; Webster) and xylazine (10 mg/kg i.p.; Webster), placed on a homoeothermic heating blanket (Harvard Apparatus) and immobilized in a stereotaxic frame (Stoelting). A linear skin incision was made under sterile conditions, and a small hole was created in the skull using a dental drill 1 mm anterior and 2 mm lateral to bregma over both hemispheres. 1 μl Aβ in sterile pyrogen-free saline (1 mg/ml) was inoculated on the left side, and the same amount of revAβ was inoculated on the right side, using separate Hamilton syringes. Mice were allowed to fully recover on a heating blanket. After 48 hours, the mice were anesthetized with ketamine/xylazine and transcardially perfused with 4% paraformaldehyde in PBS. Brains were removed, placed in 4% PFA overnight at 4° C., and then transferred to PBS and stored at 4° C. until sectioning. Coronal 60 μm sections were taken using a vibratome (Leica). […] To quantify the number of microglia recruited to sites of microinjection, serial sections from each site of injection were visualized by fluorescence microscopy (Nikon Eclipse E400) and digitally photographed. […] Fluorescence intensity of microglia immunoreactive for F4/80 at each injection site was quantified using ImageJ (NIH).

Substance: Aβ 1-42 peptide
- IL-1β release induced by Aβ (mouse macrophages): strong and dose-dependent IL-1β release
- IL-1β release into supernatants induced by the peptide (mouse microglia): time-dependent release of IL-1β
- IL-1β release into supernatants induced by the peptide (mouse microglia; listed as fibrillar Aβ): early and pronounced IL-1β release
- cells with enlarged lysosomes not staining for cathepsin B (lysosomes of microglia; microglia, 4 h after Aβ stimulation): 15-20%
- diameter of Aβ-containing lysosomes, largest observed (lysosomes of microglia; microglia, Aβ-FITC): up to 11 μm
- diameter of Aβ-containing lysosomes, mean (lysosomes of microglia; microglia, Aβ-FITC): 4.1±0.4 μm
- cells with extensive enlargement and swelling of Aβ-containing lysosomes (lysosomes of microglia; microglia, of all cells): ~15%
- cells negative for LysoTracker fluorescence (lysosomes of microglia; wild type microglia, Aβ 1, 3 and 10 μM, flow cytometry): increased dose-dependently; also recorded: induced loss of LysoTracker Green fluorescence
- microglia around the injection site (F4/80) (mice): strong recruitment and chemotaxis of microglia
